In PMC9027131, “Dual PI3K/Akt Inhibitors Bearing Coumarin-Thiazolidine Pharmacophores as Potential Apoptosis Inducers in MCF-7 Cells” (Pharmaceuticals, 2022):

What was measured:
MCF-7 cells [1] = test: MTT cytotoxicity assay in MCF-7 cells; format: cell-based, human; conditions: Homo sapiens, MCF7, 48 h, means ± sd, n = 3
Experimental: The in vitro anticancer activity of the designed coumarin-thiosemicarbazones and coumarin-thiazolidine-4-one hybrids against MCF-7 cells was tested using the MTT assay, and 5-fluorouracil (5-FU) was used as the reference drug. The tested compounds were used in different concentrations, and cell survival was determined after incubation for 48 h as reported. The cytotoxic activity is represented in Table 1 as IC50 (µM) values.
(§1) MCF-7 breast cancer cell line (ATCC® HTB-22™) plus non-tumorigenic epithelial cell line (MCF 10, ATCC® CRL-10317™) were supplied from VACSERA (Cairo, Egypt) and cultured in Dulbecco’s Modified Eagle Medium (Invitrogen-Life Technologies, Carlsbad, CA, USA) with 1% antibiotic solution (streptomycin–penicillin) plus 10% fetal bovine serum (Hyclone) in a 5% (v/v) humidified CO2 incubator at 37 °C.
Firstly, cells were kept in a humidified atmosphere (37 °C, 24 h), and then incubated with serial concentrations of the tested compounds. After 48 h, the medium was aspirated, and then cells were incubated with 5% MTT solution (M-5655; Sigma Aldrich, St. Louis, MO USA) (200 µL/well, 2 h), allowing the dye to metabolize into the colored insoluble formazan complex that was then dissolved in the appropriate solubilization solution (M-8910) (200 µL/well), for 30 min with gentle mixing at room temperature. The UV absorbance was measured using a microplate reader (570 nm), and cell viability was determined with respect to untreated control cells. […] The values were means ± sd; n = 3.

[2] = test system: MCF 10 non-tumorigenic epithelial cell line; test: MTT assay in non-cancerous epithelial cells (MCF 10); format: cell-based
Experimental: as §1
Firstly, cells were kept in a humidified atmosphere (37 °C, 24 h), and then incubated with serial concentrations of the tested compounds. After 48 h, the medium was aspirated, and then cells were incubated with 5% MTT solution (M-5655; Sigma Aldrich, St. Louis, MO USA) (200 µL/well, 2 h), allowing the dye to metabolize into the colored insoluble formazan complex that was then dissolved in the appropriate solubilization solution (M-8910) (200 µL/well), for 30 min with gentle mixing at room temperature. The UV absorbance was measured using a microplate reader (570 nm), and cell viability was determined with respect to untreated control cells.

PI3K-α = target: T1, PI3K-α (Homo sapiens, UniProt P42336); test: PI3Kα (p110α/p85) enzyme inhibition assay kit; format: biochemical; conditions: means ± sd, n = 3; read-out: IC50 (µM) PI3K-α Isoform
T1 construct: purchased BPS Bioscience, Inc 79781
Excerpt: (§2) Accumulating evidence highlighted that PI3K signaling pathway upregulation is highly implicated in breast cancer development and disease progression as well as resistance to hormones and cytotoxic therapy. Therefore, it is essential to elucidate the effect of the novel compound, VIIb, on the PI3K/Akt signaling pathway by using in vitro PI3K class 1A enzyme inhibition assay conducted on PI3K-α and PI3K-γ isoforms as well as an Akt-1 enzyme inhibition assay. […] Furthermore, targeting the PI3K-γ isoform in breast cancer could contribute to enhancing the anti-tumor immunity.
The in vitro inhibition of PI3K and Akt kinase activities by VIIb was assessed using a PI3Kα (p110α/p85) assay kit (Catalog #79781; BPS Bioscience, Inc, San Diego, CA, USA), PI3Kγ (p110γ/PIK3R5) assay kit (Catalog #79803; BPS Bioscience, Inc, San Diego, CA, USA), and Akt Kinase Activity assay kit (ab139436; Abcam, Cambridge, UK) following the manufacturer’s instructions as described previously. The results were expressed as IC50 values using dose–response curves and linear regression equations.

Akt-1 = target: T2, Akt-1 (Homo sapiens, UniProt P31749); test: Akt Kinase Activity assay kit; format: biochemical; conditions: means ± sd, n = 3; read-out: IC50 (µM) Akt-1 Isoform
T2 construct: purchased Abcam ab139436
Excerpt: as §2
The in vitro inhibition of PI3K and Akt kinase activities by VIIb was assessed using a PI3Kα (p110α/p85) assay kit (Catalog #79781; BPS Bioscience, Inc, San Diego, CA, USA), PI3Kγ (p110γ/PIK3R5) assay kit (Catalog #79803; BPS Bioscience, Inc, San Diego, CA, USA), and Akt Kinase Activity assay kit (ab139436; Abcam, Cambridge, UK) following the manufacturer’s instructions as described previously. The results were expressed as IC50 values using dose–response curves and linear regression equations. LY294002 compound was taken as the reference compound. The values were means ± sd; n = 3.

MCF-7 cells [3] = test: Cell cycle analysis by flow cytometry (propidium iodide); format: cell-based, human; conditions: MCF-7, treated at IC50, 48 h
Experimental: VIIb-treated cells were subjected to cell cycle phase distribution analysis as well as apoptosis rates determination by flow cytometric analysis in MCF-7 cells, as reported.
Control and VIIb-treated (IC50 µM, 48 h) MCF-7 cells were harvested and then subjected to cell cycle analysis by flow cytometry.
(§3) Cell cycle analysis and apoptosis rates following VIIb treatment were investigated using a Propidium Iodide Flow Cytometry Kit (ab139418; Abcam, Cambridge, UK) and Annexin V-FITC apoptosis kit (Catalog: K101-25; BioVision Research Products, San Francisco, CA, USA), respectively, following the manufacturer’s instructions as stated by a previous study.

MCF-7 cells [4] = test: Annexin V-FITC/PI apoptosis assay by flow cytometry; format: cell-based, human
Excerpt: Remarkably, clinical oncology aims at developing novel targeted cancer therapies that could induce apoptosis in neoplastic cells to enhance their eradication. Since loss of apoptosis is closely related to cancer cell survival and abnormal growth, induction of apoptotic signaling pathways is a crucial mechanism in targeted cancer therapy. To further explore the link between apoptosis rates and VIIb treatment, the pro-apoptotic activity of this novel compound was investigated by flow cytometry using both Annexin V (V) and propidium iodide (PI) dyes. A distinctive feature of early apoptosis is phosphatidylserine transfer toward the cellular surface. Thus, phosphatidylserine can be detected by fluorochrome-tagged anticoagulant protein V. Therefore, the viable cells remained unstained (V^−/PI^−).
Control untreated and MCF-7 cells treated with compound VIIb at its IC50 (µM) for 48 h were subjected to apoptotic analysis using Annexin V (V) and propidium iodide (PI) fluorescent dyes.
as §3

[5] = MCF-7, with respect to control cells

T2 sequence (P31749 whole entry, species assumed, canonical isoform): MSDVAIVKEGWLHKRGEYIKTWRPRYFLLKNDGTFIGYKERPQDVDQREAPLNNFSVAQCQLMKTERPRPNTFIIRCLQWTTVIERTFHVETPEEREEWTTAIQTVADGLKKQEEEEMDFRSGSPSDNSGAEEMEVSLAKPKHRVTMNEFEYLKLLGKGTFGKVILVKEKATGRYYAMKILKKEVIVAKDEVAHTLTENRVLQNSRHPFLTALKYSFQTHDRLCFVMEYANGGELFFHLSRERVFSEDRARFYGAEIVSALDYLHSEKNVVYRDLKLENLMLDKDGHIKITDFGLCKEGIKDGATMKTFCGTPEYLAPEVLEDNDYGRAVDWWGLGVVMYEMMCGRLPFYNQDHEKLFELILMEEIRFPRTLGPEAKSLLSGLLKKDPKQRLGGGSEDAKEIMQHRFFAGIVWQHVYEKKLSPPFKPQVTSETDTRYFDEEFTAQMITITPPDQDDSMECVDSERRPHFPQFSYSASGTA
T1 sequence (P42336 whole entry, canonical isoform): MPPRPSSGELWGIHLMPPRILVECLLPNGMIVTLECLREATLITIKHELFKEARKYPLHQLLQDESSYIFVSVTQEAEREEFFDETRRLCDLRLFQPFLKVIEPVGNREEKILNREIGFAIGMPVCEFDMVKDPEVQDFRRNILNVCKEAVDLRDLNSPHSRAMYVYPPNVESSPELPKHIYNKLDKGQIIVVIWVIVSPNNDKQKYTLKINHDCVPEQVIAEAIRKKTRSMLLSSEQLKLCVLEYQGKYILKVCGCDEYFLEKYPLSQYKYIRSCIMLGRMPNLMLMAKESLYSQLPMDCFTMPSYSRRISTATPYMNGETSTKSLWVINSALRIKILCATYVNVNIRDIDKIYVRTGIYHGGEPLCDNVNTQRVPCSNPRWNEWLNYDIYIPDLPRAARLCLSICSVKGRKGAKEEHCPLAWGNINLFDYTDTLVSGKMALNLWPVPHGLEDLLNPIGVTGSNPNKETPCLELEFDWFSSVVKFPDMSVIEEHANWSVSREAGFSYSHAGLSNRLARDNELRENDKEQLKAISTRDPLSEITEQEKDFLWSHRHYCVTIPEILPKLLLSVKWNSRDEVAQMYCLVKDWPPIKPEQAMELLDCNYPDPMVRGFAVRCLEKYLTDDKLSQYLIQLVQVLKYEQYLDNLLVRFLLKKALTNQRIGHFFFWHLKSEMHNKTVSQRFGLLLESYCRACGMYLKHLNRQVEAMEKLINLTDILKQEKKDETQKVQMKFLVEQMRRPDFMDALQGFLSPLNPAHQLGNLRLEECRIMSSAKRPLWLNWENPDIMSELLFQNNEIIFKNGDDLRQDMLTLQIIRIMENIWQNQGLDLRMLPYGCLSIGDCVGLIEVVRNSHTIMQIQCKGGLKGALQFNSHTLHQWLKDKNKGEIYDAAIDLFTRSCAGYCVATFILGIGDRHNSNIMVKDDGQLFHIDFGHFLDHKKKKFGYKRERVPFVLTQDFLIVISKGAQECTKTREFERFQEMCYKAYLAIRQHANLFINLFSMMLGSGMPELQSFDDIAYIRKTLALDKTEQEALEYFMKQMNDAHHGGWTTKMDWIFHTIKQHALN
T1 sequence (P27986 whole entry partner, canonical isoform): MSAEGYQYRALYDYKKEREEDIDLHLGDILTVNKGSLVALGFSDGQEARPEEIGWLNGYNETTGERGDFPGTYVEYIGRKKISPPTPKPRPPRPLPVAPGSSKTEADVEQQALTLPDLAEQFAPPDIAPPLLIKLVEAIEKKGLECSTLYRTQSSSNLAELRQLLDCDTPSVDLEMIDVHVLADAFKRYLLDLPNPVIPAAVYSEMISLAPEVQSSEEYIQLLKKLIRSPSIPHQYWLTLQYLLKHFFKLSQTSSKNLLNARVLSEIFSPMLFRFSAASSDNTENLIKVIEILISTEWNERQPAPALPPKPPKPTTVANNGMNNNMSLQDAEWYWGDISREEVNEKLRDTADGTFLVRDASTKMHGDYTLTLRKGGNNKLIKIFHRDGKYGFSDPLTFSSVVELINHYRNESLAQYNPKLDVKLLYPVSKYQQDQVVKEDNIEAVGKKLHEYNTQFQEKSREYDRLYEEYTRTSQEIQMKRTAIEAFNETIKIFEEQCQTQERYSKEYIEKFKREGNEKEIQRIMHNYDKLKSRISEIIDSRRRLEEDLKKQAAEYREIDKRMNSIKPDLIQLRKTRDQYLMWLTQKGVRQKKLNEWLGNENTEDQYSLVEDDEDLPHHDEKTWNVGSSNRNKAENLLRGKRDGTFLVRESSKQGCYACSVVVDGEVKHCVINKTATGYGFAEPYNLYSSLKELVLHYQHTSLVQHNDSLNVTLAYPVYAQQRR

C/C(=N/N=C1/SCC(=O)N1C(=O)c1ccccc1)c1c(O)ccc2c(C)cc(=O)oc12 [VIIb]
IC50 (MCF-7 cells [1]): 1.03 ± 0.05 µM
IC50 ([2]; Homo sapiens, MCF10, MTT assay, non-cancerous epithelial cells, means ± sd, n = 3): 9.52 ± 0.6 µM
Selectivity Index MCF-10/MCF-7 ([2]; ratio of IC50 MCF-10 to IC50 MCF-7): 9.24
IC50 (PI3K-α): 3.7 ± 0.19 µM
IC50 (Akt-1): 2.93 ± 0.15 µM
DNA Content % Pre G1 (MCF-7 cells [3]; control 1.55): 35.25%
DNA Content % G2/M (MCF-7 cells [3]; control 9.71): 5.59%
DNA Content % S (MCF-7 cells [3]; control 36.58): 46.02%
DNA Content % G0/G1 (MCF-7 cells [3]; control 53.71): 48.39%
Apoptosis % Late (V+/PI+) (MCF-7 cells [4]; MCF-7, treated at IC50, 48 h, control 0.17): 21.05%
Apoptosis % Early (V+/PI−) (MCF-7 cells [4]; MCF-7, treated at IC50, 48 h, control 0.48): 2.51%
Necrosis% (MCF-7 cells [4]; MCF-7, treated at IC50, 48 h, control 0.90): 11.69%
Apoptosis % Total (MCF-7 cells [4]; MCF-7, treated at IC50, 48 h, control 1.55): 35.25%
fold increase in early apoptotic cells (MCF-7 cells [4]; [5]): 5 fold
fold increase in late apoptotic cells (MCF-7 cells [4]; [5]): 100 fold
